Measurements published in patent US10202408B2, “Prodrugs and methods of use thereof” (Health Innovation Ventures B.V., priority 2012, dated 2019).
“Also recorded” adds a separate entry of the source.

Tests used:
[1] = test system: 15% E coli NfsA-expressing H1299 xenografts; assay: Tumour growth delay, 15% E coli NfsA-expressing H1299 xenografts; type: in vivo, NIH-III mice
Description: Animals weighed 18-25 g at the time of tumour inoculation. Tumours were grown subcutaneously on the right flank of mice by inoculating cells grown in tissue culture (1×10^7 cells in 100 uL serum free α-MEM). Tumour sizes were monitored three times weekly using electronic callipers and treatments were initiated once tumour diameter reached ≥7 mm.
Tumour bearing mice were randomised into the appropriate treatment groups and tumour size and body weight recorded. Test compounds were formulated on the day of the experiment and kept in foil-wrapped tubes out of direct fluorescent light. If recruitment of animals occurred over multiple days, the drug stocks were aliquoted into tubes and frozen once at […] until required. Mice were treated with a single (or BID) dose of prodrug by intraperitoneal injection and thereafter tumour size and body weight was monitored every second day. Tumour volume was calculated as π (l×w×w)/6, where l is the major axis and w is the perpendicular minor axis. Animals were culled when they had reached the appropriate survival endpoint or when body weight loss exceeded 20% of the pre-treatment value.

[2] = test system: wild type SiHa tumour xenografts; assay: Excision assay with and without radiation, wild type SiHa tumour xenografts; type: in vivo, NIH-III nude mice
Description: Tumours were grown subcutaneously in the flank of NIH-III mice by inoculating cells grown in tissue culture. Tumours were monitored using electronic calipers. When tumours reached treatment size, mice were randomized to treatment groups (five to seven per group). Compounds were given as single (or BID) intraperitoneal doses alone or 5 min after whole body irradiation (^60Co source). Eighteen hours after treatment, tumours were excised, weighed, minced, dissociated enzymatically, and plated to determine clonogenicity. Clonogens/gram of tissue were calculated relative to controls and effects of treatment were tested for significance (ANOVA with Dunnett's).

[3] = test system: HCT116 cells engineered to over-express human aldo-ketoreductase 1C3 (AKR1C3); assay: Low cell density IC50 (SRB) assay, HCT116 wild type versus AKR1C3 over-expressing cells; type: cell-based; details: 4 h exposure
Description: (§1) Compounds were subjected to testing, including low-cell density cytotoxicity assay. Cells (500 cells/well) were seeded in 96-well plates and exposed to prodrug for 4 h, washed, then left to grow for a further 5 days. The SRB assay was employed to determine IC50 values (concentration of prodrug required to inhibit proliferation by 50%). Parental HCT116 cells (HCT116 is a cell line derived from human colon cancer) and cells expressing the example nitroreductase gene nfsA from Escherichia coli were evaluated head-to-head. Parental H1299 cells (H1299 is a cell line derived from lung cancer) and cells expressing the example nitroreductase gene nfsA from Escherichia coli were evaluated head-to-head. Parental HCT116 cells and cells expressing human AKR1C3 were evaluated head-to-head. Parental H1299 cells and cells expressing human AKR1C3 were evaluated head-to-head. In a variation of these assays test compounds were assessed for their ability to give hypoxia-selective cell killing. Here wild type HCT116, H460 (H460 is a cell line derived from lung cancer), H1299 and SiHa cells (SiHa is a cell line derived from cervical cancer) were used in addition to HCT116 cells engineered to over express cytochrome P450 reductase (HCT116 POR), a human one-electron nitroreductase. Low-cell density cytotoxicity assays were performed as above under oxic conditions and compared to experiments where cells were shown 4 h of anoxia during the prodrug exposure period, before being washed free of prodrug and then left to grow for a further 5 days under oxic conditions, as above.

[4] = test system: HCT116 MCLs over-expressing AKR1C3; assay: Multicellular layer (MCL) clonogenic assay, HCT116 wild type versus AKR1C3 over-expressing MCLs; type: cell-based, human
Description: (§2) In parallel, a three dimensional high-cell density multi-cellular layer (MCL) clonogenic assay was performed. 1×10^6 cells of either 100% HCT-116^WT or containing 97% WT with a minor 3% HCT-116^NTR cell population were seeded into a collagen-coated Teflon microporous membrane and left to grow for 3 days. MCLs were then exposed to prodrug for 5 h. After treatment, MCLs were enzyme dissociated, diluted in fresh medium and plated to determine clonogenic survival. To discriminate clonogenic activator (NTR+) from target (NTR−) colonies, cells were plated in non-selective medium (total cells) and medium containing 1 μM puromycin (activator cells). Colonies were grown for 10 days before staining. Colonies containing >50 cells were counted. A variation of this assay was also used to assess for evidence of AKR1C3-dependent cytotoxicity. Here either 100% HCT-116W^T or 100% HCT-116^AKR1C3 cells were seeded to provide MCLs that were then exposed to prodrug.

[5] = test system: HCT116 cells engineered to over-express E coli NfsA; assay: Low cell density IC50 (SRB) assay, HCT116 wild type versus E coli NfsA over-expressing cells; type: cell-based, human
Description: as §1

[6] = test system: H1299 cells engineered to over-express E coli NfsA; assay: Low cell density IC50 (SRB) assay, H1299 wild type versus E coli NfsA over-expressing cells; type: cell-based, human
Description: as §1

[7] = test system: HCT116 MCLs with 3% E coli NfsA-expressing cells; assay: MCL clonogenic bystander assay, HCT116 MCLs seeded with 3% E coli NfsA-expressing cells; type: cell-based, human; details: 97% wild type HCT116, 3% E coli NfsA-expressing cells
Description: as §2

[8] = test system: bacterial nitroreductases from the NfsA and NfsB families; assay: GFP SOS assay with nitroreductase over-expression library; type: cell-based, E. coli strain SOS-R4; details: 55 candidate nitroreductase library, 6 h challenge
From the text: The method employed the over-expression of a candidate nitroreductase gene from plasmid pUCX in an SOS reporter strain, as first described in Prosser et al., 2010, Biochem Pharmacol 79, 678-687. In order to enhance the sensitivity of the SOS reporter system, an sfiA::GFP reporter construct was integrated into a CDF-based plasmid (which contains a compatible origin of replication with pUCX) to give the pANODuet reporter plasmid for GFP screening. In addition, nfsA, nfsB, azoR, and nemA genes were deleted to minimise background metabolism, and the tolC gene deleted to minimise efflux of test compounds; this strain was designated SOS-R3. Further improvements were obtained by deleting the mdaB, ycaK, and yieF genes to minimise background metabolism, and by introducing transcriptional terminators to the pANODUET reporter plasmid. This final reporter strain was designated SOS-R4.
Stored glycerols of the 55-membered nitroreductase library in SOS-R4 were thawed and used to inoculate overnight cultures (Lysogeny Broth (LB) amended with 100 μg ml^−1 Ampicillin, 50 μg ml^−1 Spectinomycin, 0.4% glucose) that were incubated at 30° C., 200 rpm for 16 h. The next morning the GFP-SOS assay was commenced by inoculation of 195 μl fresh assay media (LB+100 μg ml^−1 Ampicillin, 50 μg ml^−1 Spectinomycin, 0.2% glucose, 50 μM IPTG) with 15 μl of overnight culture in individual wells of a 96-well plate. Plates were incubated at 30° C., 200 rpm for 2.5 h (pre-challenge period), following which cultures were diluted 1:2 by splitting 50:50 into fresh assay media (+DMSO to 0.5% final concentration) and fresh challenge media (assay media+drug to desired concentration, DMSO to 0.5% final concentration) to final volumes of 80 μl apiece in duplicate on a 384-well plate. Plates were incubated at 30° C., 200 rpm for 6 h (challenge period). GFP expression was determined at excitation 488 nm/emission 509 nm. Turbidity was determined by OD600 and fluorescence data from any replicates not found to be within 15% of the median culture turbidity were discarded.

[9] = test system: bacterial nitroreductases from the NfsA and NfsB families; assay: as above; type: cell-based, E. coli strain SOS-R4; details: single and poly mutated variants of NfsA_Ec, single-mutated variant of NfsA_Bs
[10] = test system: H1299 cells engineered to over-express human aldo-ketoreductase 1C3 (AKR1C3); assay: Low cell density IC50 (SRB) assay, H1299 wild type versus AKR1C3 over-expressing cells; type: cell-based; details: 4 h exposure
Description: as §1

Compound	AKR1C3-mediated cytotoxicity (IC50 wild type versus AKR1C3) [3]	AKR1C3-dependent clonogenic cell kill in MCLs [4]	E coli NfsA-mediated cytotoxicity (IC50 wild type versus NfsA) [5]	E coli NfsA-mediated cytotoxicity (IC50 wild type versus NfsA) [6]	bystander cell killing in MCLs [7]	metabolism by bacterial nitroreductases (SOS response) [8]	activity with mutated nitroreductase variants [9]	further results
CCS(=O)(=O)c1cc([N+](=O)[O-])c(C(=O)N(C)CCOP(=O)(O)O)cc1N(CCBr)CCBr [compound 11, 2-(5-(bis(2-bromoethyl)amino)-4-(ethylsulfonyl)-N-methyl-2-nitrobenzamido)ethyl dihydrogen phosphate]	–	–	–	–	–	–	–	tumour growth delay ([1]; mixed HCT116 and H1299 xenografts, 15% E coli NfsA cells, single (or BID) intraperitoneal dose): profound tumour growth delay; E coli NfsA mediated anti-tumour efficacy (mean tumour volume) ([1]; single dose, 10, 22, 60 and 11 at 750, 422, 1330 and 1330 umol/kg): display significant E coli NfsA mediated anti-tumour efficacy; cell killing in combination with radiation versus radiation alone ([2]; HCT116 POR and wild type SiHa xenografts, 10 or 15Gy, single (or BID) intraperitoneal dose): increased cell killing above what could be achieved with radiation alone; hypoxic cell kill in vivo (log cell kill) ([2]; with or without 10Gy radiation, 22 at 422, 300 and 11 at 1330, 23 at 1000 umol/kg): significant hypoxic cell kill in vivo
CS(=O)(=O)OCCN(CCBr)c1ccc([N+](=O)[O-])cc1C(=O)NCCO [compound 64, 2-((2-bromoethyl)(2-((2-hydroxyethyl)carbamoyl)-4-nitrophenyl)amino)ethyl methanesulfonate]	less susceptible to AKR1C3-mediated cytotoxicity than PR-104A	do not cause AKR1C3-dependant cytotoxicity	produce E coli NfsA-mediated cytotoxicity	produce E coli NfsA-mediated cytotoxicity	display evidence of metabolism by the 3% E coli NfsA-expressing cells with bystander cell killing of the 97% non-expressing neighbour cells	substrates for multiple wild type and mutant bacterial nitroreductases from the NfsA and NfsB families	demonstrated	–
CC(C)N1CCN(C(=O)c2cc(N(CCBr)CCBr)c(S(C)(=O)=O)cc2[N+](=O)[O-])CC1 [compound 24, (5-(bis(2-bromoethyl)amino)-4-(methylsulfonyl)-2-nitrophenyl)(4-isopropylpiperazin-1-yl)methanone]	less susceptible to AKR1C3-mediated cytotoxicity than PR-104A	do not cause AKR1C3-dependant cytotoxicity	produce E coli NfsA-mediated cytotoxicity	produce E coli NfsA-mediated cytotoxicity	display evidence of metabolism by the 3% E coli NfsA-expressing cells with bystander cell killing of the 97% non-expressing neighbour cells	substrates for multiple wild type and mutant bacterial nitroreductases from the NfsA and NfsB families	demonstrated	AKR1C3-mediated cytotoxicity (IC50 wild type versus AKR1C3) [10]: less susceptible to AKR1C3-mediated cytotoxicity than PR-104A
CCCN(CCO)C(=O)c1cc([N+](=O)[O-])cc([N+](=O)[O-])c1N(CCBr)CCBr [compound 9, reference compound]	appears to be AKR1C3-negative; also recorded: appear negative for AKR1C3 dependent cell sensitivity	capable of producing AKR1C3-dependent cell ablation	–	–	–	–	–	–
CC(C)N(CCO)C(=O)c1cc([N+](=O)[O-])cc([N+](=O)[O-])c1N(CCBr)CCBr [compound 8, reference compound]	appear negative for AKR1C3 dependent cell sensitivity	–	–	–	–	–	–	–
CCS(=O)(=O)c1cc([N+](=O)[O-])c(C(=O)N2CCN(C(C)C)CC2)cc1N(CCBr)CCBr [compound 27, (5-(bis(2-bromoethyl)amino)-4-(ethylsulfonyl)-2-nitrophenyl)(4-isopropylpiperazin-1-yl)methanone]	less susceptible to AKR1C3-mediated cytotoxicity than PR-104A	do not cause AKR1C3-dependant cytotoxicity	produce E coli NfsA-mediated cytotoxicity	produce E coli NfsA-mediated cytotoxicity	display evidence of metabolism by the 3% E coli NfsA-expressing cells with bystander cell killing of the 97% non-expressing neighbour cells	substrates for multiple wild type and mutant bacterial nitroreductases from the NfsA and NfsB families	demonstrated	AKR1C3-mediated cytotoxicity (IC50 wild type versus AKR1C3) [10]: less susceptible to AKR1C3-mediated cytotoxicity than PR-104A
CS(=O)(=O)OCCN(CCBr)c1c(C(=O)NCCO)cc([N+](=O)[O-])cc1[N+](=O)[O-] [PR-104A, 2-((2-bromoethyl)(2-((2-hydroxyethyl)carbamoyl)-4,6-dinitrophenyl)amino)ethyl methanesulfonate, reference compound]	–	–	produce E coli NfsA-mediated cytotoxicity	produce E coli NfsA-mediated cytotoxicity	–	–	–	–
CCN(CCO)C(=O)c1cc([N+](=O)[O-])cc([N+](=O)[O-])c1N(CCBr)CCBr [compound 7, reference compound]	–	capable of producing AKR1C3-dependent cell ablation	–	–	–	–	–	–
